Measured values from ChEMBL document CHEMBL3632480, “Optimization of an indazole series of selective estrogen receptor degraders: Tumor regression in a tamoxifen-resistant breast cancer xenograft” (Bioorg Med Chem Lett, 2015).

Key:
[1] = tested on: MCF7; assay: Cytotoxicity against human MCF7 cells assessed as decrease in cell viability after 5 days by celltiterGlo assay; assay type: functional, cell-based; conditions: MCF7, 120 h
[2] = tested on: MCF7; assay: Decrease in estrogen receptor alpha level in human MCF7 cells after 4 hrs by in-cell western assay relative to fulvestrant; assay type: functional; conditions: MCF7, 4 h
[3] = tested on: MCF7; assay: Decrease in estrogen receptor alpha level in human MCF7 cells after 4 hrs by in-cell western assay; assay type: functional, cell-based; conditions: MCF7, 4 h

Compound | EC50 [3] | IC50 [1] | Emax [2]
O=C(O)/C=C/c1ccc(/C(=C(\c2ccccc2)C(F)(F)F)c2ccc3[nH]ncc3c2)cc1 | 3.1 nM | 5.5 nM | 92%
CC/C(=C(/c1ccc(/C=C/C(=O)O)cc1)c1cc(Cl)c2[nH]ncc2c1)c1ccccc1 | 18 nM | 56 nM | 92%
C[C@]12CC[C@@H]3c4ccc(O)cc4C[C@@H](CCCCCCCCC[S+]([O-])CCCC(F)(F)C(F)(F)F)[C@H]3[C@@H]1CC[C@@H]2O (stereo not given in full) [FULVESTRANT] | 0.4 nM | 0.6 nM | 100%
CC/C(=C(/c1ccc(/C=C/C(=O)O)cc1)c1cc(F)c2[nH]ncc2c1)c1ccccc1 | 6.4 nM | 7.5 nM | 92%
COC/C(=C(/c1ccc(/C=C/C(=O)O)cc1)c1ccc2[nH]ncc2c1)c1ccccc1 | 35 nM | 88 nM | 86%
C/C(=C(/c1ccc(/C=C/C(=O)O)cc1)c1ccc2[nH]ncc2c1)c1ccccc1 | 26 nM | 40 nM | 92%
CC/C(=C(/c1ccc(/C=C/C(=O)O)cc1)c1ccc2[nH]ncc2n1)c1ccccc1 | 20 nM | 33 nM | 88%
CCCC/C(=C(/c1ccc(/C=C/C(=O)O)cc1)c1ccc2[nH]ncc2c1)c1ccccc1 | 11 nM | 10 nM | 92%
CC/C(=C(/c1ccc(/C=C/C(=O)O)cc1)c1ccc2[nH]ncc2c1C)c1ccccc1 | 13 nM | 50 nM | 90%
O=C(O)/C=C/c1ccc(/C(=C(/CCF)c2ccccc2)c2ccc3[nH]ncc3c2)cc1 | 1.4 nM | 2.1 nM | 91%
CC/C(=C(/c1ccc(/C=C/C(=O)O)cc1)c1ccc2[nH]ncc2c1)c1ccccc1 |  | 7.2 nM | 90%
CC(C)/C(=C(/c1ccc(/C=C/C(=O)O)cc1)c1ccc2[nH]ncc2c1)c1ccccc1 | 4.3 nM | 4 nM | 91%
O=C(O)/C=C/c1ccc(/C(=C(/CCO)c2ccccc2)c2ccc3[nH]ncc3c2)cc1 | > 1000 nM | > 1000 nM | 
CCC/C(=C(/c1ccc(/C=C/C(=O)O)cc1)c1ccc2[nH]ncc2c1)c1ccccc1 | 4.6 nM | 11 nM | 92%
O=C(O)/C=C/c1ccc(/C(=C(/CCCl)c2ccccc2)c2ccc3[nH]ncc3c2)cc1 | 1.4 nM | 9 nM | 90%
CC/C(=C(/c1ccc(/C=C/C(=O)O)cc1)c1cc(C)c2[nH]ncc2c1)c1ccccc1 | 19 nM | 59 nM | 89%

Second part, led by results:

EC50 [3] | Compound | IC50 [1] | Emax [2]
7.6 nM | O=C(O)/C=C/c1ccc(/C(=C(\c2ccccn2)C2CCC2)c2ccc3[nH]nc(F)c3c2)cc1 | 22 nM | 90%
25 nM | O=C(O)/C=C/c1ccc(/C(=C(\c2ccccc2)C2CCCCC2)c2ccc3[nH]ncc3c2)cc1 | 64 nM | 86%
0.6 nM | O=C(O)/C=C/c1ccc(/C(=C(\c2ncc(F)cc2Cl)C2CCC2)c2ccc3[nH]nc(F)c3c2)cc1 | 1.7 nM | 89%
0.6 nM | O=C(O)/C=C/c1ccc(/C(=C(\c2ccc(F)cc2Cl)C2CCC2)c2ccc3[nH]nc(F)c3c2)cc1 | 2 nM | 91%
0.3 nM | O=C(O)/C=C/c1ccc(/C(=C(\c2ccccc2)C2CCC2)c2ccc3[nH]ncc3c2)cc1 | 1.4 nM | 89%
4.7 nM | O=C(O)/C=C/c1ccc(/C(=C(\c2ccccc2)C(F)F)c2ccc3[nH]ncc3c2)cc1 | 14 nM | 91%
3 nM | O=C(O)/C=C/c1ccc(/C(=C(\c2ccc(C(F)(F)F)cc2Cl)C2CCC2)c2ccc3[nH]nc(F)c3c2)cc1 | 8.2 nM | 94%
2.8 nM | O=C(O)/C=C/c1ccc(/C(=C(\c2ccccc2)C2CC2)c2ccc3[nH]ncc3c2)cc1 | 13 nM | 89%
